Experimental data: patent US5360907A, “Pyrrolo[3,2-B]pyridinylalkyl benzamide derivatives” (G.D. Searle & Co., priority 1993, dated 1994)

Columns and labels:
PAF receptor = biological target: T1, PAF receptor (Homo sapiens, UniProt P25105); assay: Assay A: Human Platelet Receptor Binding (inhibition of specific [^3 H]PAF binding to human platelet membrane preparation); settings: 0.75 nM [^3 H]PAF, human platelet membranes, 30 minutes at 24° C.
T1 construct: human platelet membrane preparation; tissue Lifesource, Inc. (Glenview, Ill.); host or cells: human packed platelets (membrane preparation)
Method: Compounds of the invention were evaluated for their ability to inhibit specific binding of [^3 H]PAF to human platelet membrane preparation. Human packed platelets were obtained from Lifesource, Inc. (Glenview, Ill.) and washed 3 times with 10 mM Trizma pH 7.0, 2 mM EDTA (dipotassium salt), 150 mM KCl and then once with 10 mM Trizma 7.4, 20 mM CaCl2. The platelets were broken by freezing in a dry ice-ethanol bath, followed by thawing in 24° C. water baths. The preparation was centrifuged (40,000×g, 20 minutes, 4'C) and the pellet suspended in 10 mM Trizma 7.4, 20 mM CaCl2, 5 mg/ml human albumin. Protein concentration in the platelet membrane preparation was determined by the Lowry method [O. H. Lowry et al., J. Biol. Chem., 193, 265-275 (1951)]. Aliquots of the membrane preparation were stored at -70° C. Each preparation was characterized for PAF receptor number and dissociation constant (Kd). In binding assays 5 μl of test compound, solubilized in DMSO, was added to polypropylene tubes along with 0.75 nM [^3 H]PAF and 200 mcl [0.075 nM] of membranes and 95 μl 10 mM Trizma 7.4, 20 mM CaCl2, 5 mg/ml human albumin. Tubes were incubated for 30 minutes at 24° C. The incubation was terminated by adding 4 ml of ice-cold 10 mM Trizma pH 7.4, 20 mM CaCl2 and 20 mg/ml BSA prior to vacuum filtration using Whatman GF/C filters. Filters were prepared and counted for a scintillation counter. All DPM values were corrected for background and isotope decay. Triplicate determinations for single doses were averaged. The amount of non-specific binding was subtracted from all dose averages, giving an amount of specific binding in all cases. The IC50 values for the compounds of the invention were determined by the Allfit program using percent displacement data. (Allfit is a `basic` computer program for simultaneous curve fitting of a family of signoidal dose-response curves using the four parameter logistic equation.) Results are shown in Table I.

human platelets = assay: Assay B: Human Platelet Aggregation Inhibition (PAF-induced aggregation in human platelet-rich plasma); assay type: cell-based; settings: 37°
Method: Compounds of the invention were evaluated for their ability to inhibit PAF-induced aggregation of human platelets in a human-platelet-rich plasma. Venous blood was collected from donors who fasted for 8 hours and were instructed not to use antiinflammatory drugs for 2 weeks prior to the blood draw. Blood was collected into syringes containing 0.1 ml of 3.8% [w/v] citrate and centrifuged in polypropylene tubes at 150 xg for 20 minutes at room temperature. The platelet rich plasma [PRP] was collected and let sit for 20 minutes at room temperature. Platelet activating factor [PAF] was diluted in 0.9% NaCl with 0.25% bovine serum albumin. Silicon treated cuvettes with stir bars were placed in the 37° heating block of the platelet aggregometer [Bio/Data Corporation, Platelet Aggregation Profiler, Model PAP-4]. PRP and test compound were added to cuvettes and aggregation monitored for 10-15 seconds at 37° with stirring. PAF was added and aggregation monitored for an additional 3 minutes. Peak aggregation was considered the peak of the first aggregation wave, usually 45-60 seconds after PAF addition. Inhibition of aggregation was determined by the following: 1-[(% aggregation in the presence of compound).div.(% maximal aggregation)]. A log/logit transformation was used to determine half maximal inhibitory concentration of a test compound [IC50 ].

T1 sequence (P25105 whole entry): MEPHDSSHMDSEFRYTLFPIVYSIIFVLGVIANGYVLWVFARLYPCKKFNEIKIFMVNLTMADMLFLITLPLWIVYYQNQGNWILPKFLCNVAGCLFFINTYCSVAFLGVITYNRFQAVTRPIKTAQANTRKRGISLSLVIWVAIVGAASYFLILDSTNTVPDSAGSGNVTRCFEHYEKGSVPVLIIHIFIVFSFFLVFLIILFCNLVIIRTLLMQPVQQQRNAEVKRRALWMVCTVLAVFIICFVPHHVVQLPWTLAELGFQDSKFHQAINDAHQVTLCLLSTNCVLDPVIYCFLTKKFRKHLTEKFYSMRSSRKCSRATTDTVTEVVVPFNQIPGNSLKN

COc1cc(C(=O)N(C(C)C)C2CCCCC2)ccc1Cn1ccc2ncccc21 [Example 1, N-cyclohexyl-3-methoxy-N-(1-methylethyl)-4-(1H-pyrrolo[3,2-b]pyridin-1-ylmethyl)benzamide]
IC50 (PAF receptor): 38 nM
IC50 (human platelets): 2 nM

COc1cc(Cn2ccc3ncccc32)ccc1C(=O)N(C(C)C)C1CCCCC1 [Example 3, N-cyclohexyl-2-methoxy-N-(1-methylethyl)-4-(1H-pyrrolo[3,2-b]pyridin-1-ylmethyl)benzamide]
IC50 (PAF receptor): 2 nM

COc1cc(Cn2ccc3ncccc32)ccc1C(=O)N(C1CCCCC1)C1CCC1 [Example 4, N-cyclobutyl-N-cyclohexyl-2-methoxy-4-(1H-pyrrolo[3,2-b]pyridin-1-ylmethyl)benzamide]
IC50 (PAF receptor): 7 nM

COc1cc(Cn2ccc3ncccc32)ccc1C(=O)N(C1CCCC1)C1CC(C)CC(C)C1 (stereo not shown) [Example 5, N-cyclopentyl-N-(3,5-dimethylcyclohexyl)-2-methoxy-4-(1H-pyrrolo[3,2-b]pyridin-1-ylmethyl)benzamide]
IC50 (PAF receptor): 15 nM

Cc1cc(C(=O)N(C2CCCCC2)C2CCCC2)ccc1Cn1ccc2ncccc21 [Example 6, N-cyclohexyl-N-cyclopentyl-3-methyl-4-(1H-pyrrolo[3,2-b]pyridin-1-ylmethyl)benzamide]
IC50 (PAF receptor): 39 nM

CC(C)N(C(=O)c1ccc(Cn2ccc3ncccc32)c(Br)c1)C1CCCCC1 [Example 7, 3-bromo-N-cyclohexyl-N-(1-methylethyl)-4-(1H-pyrrolo[3,2-b]pyridin-1-ylmethyl)benzamide]
IC50 (PAF receptor): 8 nM
